# Source: patent US20220380368A1, “SPIROCYCLIC ANDROGEN RECEPTOR PROTEIN DEGRADERS” (THE REGENTS OF THE UNIVERSITY OF MICHIGAN, priority 2019, published 2022)
# Read-outs that look alike come from different tables or passages of the source.
# How the values were obtained:
# AR protein = target: T1, AR protein (Homo sapiens, UniProt P10275); test: Western blotting analysis of AR protein levels in VCaP cells, band quantification, DC50/DC90; assay type: cell-based; conditions: VCaP cells, Table 6; read-out: VCaP DC50
# T1 construct: endogenous in cells; host or cells: VCaP
# T1 sequence (P10275 1-920): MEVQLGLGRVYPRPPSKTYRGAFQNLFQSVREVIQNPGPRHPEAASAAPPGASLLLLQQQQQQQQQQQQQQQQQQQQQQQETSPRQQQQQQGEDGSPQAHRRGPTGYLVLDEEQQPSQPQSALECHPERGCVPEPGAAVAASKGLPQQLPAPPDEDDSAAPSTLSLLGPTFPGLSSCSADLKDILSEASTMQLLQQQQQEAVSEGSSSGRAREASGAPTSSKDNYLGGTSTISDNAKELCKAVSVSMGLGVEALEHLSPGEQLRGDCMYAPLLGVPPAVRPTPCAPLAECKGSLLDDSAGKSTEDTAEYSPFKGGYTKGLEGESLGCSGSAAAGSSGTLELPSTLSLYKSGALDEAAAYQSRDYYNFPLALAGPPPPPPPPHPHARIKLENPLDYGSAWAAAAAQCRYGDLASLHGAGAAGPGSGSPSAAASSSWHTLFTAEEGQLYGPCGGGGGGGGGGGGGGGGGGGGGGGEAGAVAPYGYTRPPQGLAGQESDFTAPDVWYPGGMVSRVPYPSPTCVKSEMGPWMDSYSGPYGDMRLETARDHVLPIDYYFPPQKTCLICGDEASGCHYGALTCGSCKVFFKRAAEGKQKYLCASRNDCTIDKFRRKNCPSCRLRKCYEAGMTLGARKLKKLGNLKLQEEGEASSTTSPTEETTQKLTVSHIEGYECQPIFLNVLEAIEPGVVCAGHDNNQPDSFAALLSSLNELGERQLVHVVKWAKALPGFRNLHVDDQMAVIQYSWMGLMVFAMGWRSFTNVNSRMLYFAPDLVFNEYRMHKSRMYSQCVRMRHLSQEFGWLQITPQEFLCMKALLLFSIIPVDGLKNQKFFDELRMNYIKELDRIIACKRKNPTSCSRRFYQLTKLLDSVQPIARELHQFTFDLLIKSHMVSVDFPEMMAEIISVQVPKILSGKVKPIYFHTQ
# Description: The appropriate cell line, e.g., prostate cancer LNCaP, Vcap, or 22RV1 cell line, was treated with Compounds of the Disclosure as indicated. The treated cells were lysed with RIPA buffer. […] GAPDH was used as a loading control.
# Bands were quantified with ImageJ software. The relative numbers of each band obtained from normalization with its corresponding GAPDH level were compared with Prism 8 software. The DC50 values were produced from Prism 8, and the DC90 values were calculated with an equation=Bottom+(Top−Bottom)/(1+10^((Log EC50−X)*HillSlope) based on DC50 and Hillslope values.
# [1] = Mouse PK studies after oral and IV dosing; assay type: in vivo; conditions: for F: PO 3 mg/kg vs IV 1 mg/kg; for AUC(0-t) / clearance / half-life / Vd / Cmax / Tmax: in vivo; for clearance: read-out: IV Cl (converted); for Vd: read-out: IV VSS
# Description: The pharmacokinetics of representative Compounds of the Disclosure were determined after oral and IV dosing at the concentrations indicated in mouse (Table 7). […] The vehicles used in these studies are either (i) 10% PEG400+90% PBS (adjusted to pH to 8.0 by 0.5 N NaOH); or (ii) 100% PEG200.
# [2] = iv, 1 mg/kg, IV, dose 1 mg/kg, read-out: IV AUC(0 − t)
# [3] = iv, 1 mg/kg, IV, dose 1 mg/kg, read-out: IV T1/2 (converted)
# [4] = po, 3 mg/kg, PO, dose 3 mg/kg, read-out: PO AUC(0 − t)
# [5] = po, 3 mg/kg, PO, dose 3 mg/kg, read-out: PO T1/2 (converted)
Structure (SMILES),DC50 (AR protein),F [1],"AUC(0-t) [1, 2]","clearance ([1]; iv, 1 mg/kg, IV, dose 1 mg/kg)","half-life [1, 3]","Vd ([1]; iv, 1 mg/kg, IV, dose 1 mg/kg)","Cmax ([1]; po, 3 mg/kg)","Tmax ([1]; po, 3 mg/kg)","AUC(0-t) [1, 4]","half-life [1, 5]"
"C[C@H]1CC2(CCN(c3ccc(C(=O)N4CCN(C5CCN(c6ccc7c(c6)C(=O)N(C6CCC(=O)NC6=O)C7=O)CC5)CC4)cc3F)CC2)CN1c1ccc(C#N)c(Cl)c1 (stereo partly drawn) [Cpd. No. 518, 2-chloro-4-((3S)-8-(4-(4-(1-(2-(2,6-dioxopiperidin-3-yl)-1,3-dioxoisoindolin-5-yl)piperidin-4-yl)piperazine-1-carbonyl)-2-fluorophenyl)-3-methyl-2,8-diazaspiro[4.5]decan-2-yl)benzonitrile]",10 to 100 nM,–,–,–,–,–,–,–,–,–
C[C@H]1CC2(CCN(c3ccc(C(=O)N4CCN(C5CCN(c6ccc7c(c6)C(=O)N(C6CCC(=O)NC6=O)C7=O)CC5)CC4)cc3)CC2)CN1c1ccc(C#N)c(Cl)c1 (some centres unmarked) [Cpd. No. 302],–,27%,5030 ng·h/mL,3.17 mL/min/kg,7 h,1.45 L/kg,526 ng/mL,1.3 h,4050 ng·h/mL,7.3 h
"C[C@H]1CC2(CCN(c3ccc(C(=O)N4CC[C@@H](N5CCN(c6cc7c(cc6F)C(=O)N(C6CCC(=O)NC6=O)C7=O)CC5)C4)cc3)CC2)CN1c1ccc(C#N)c(Cl)c1 (stereo partly drawn) [Cpd. No. 515, 2-chloro-4-((3S)-8-(4-((3R)-3-(4-(2-(2,6-dioxopiperidin-3-yl)-6-fluoro-1,3-dioxoisoindolin-5-yl)piperazin-1-yl)pyrrolidine-1-carbonyl)phenyl)-3-methyl-2,8-diazaspiro[4.5]decan-2-yl)benzonitrile]",10 to 100 nM,–,–,–,–,–,–,–,–,–
C[C@H]1CC2(CCN(c3ccc(C(=O)N4CCN(C5CCN(c6cc7c(cc6F)C(=O)N(C6CCC(=O)NC6=O)C7=O)CC5)CC4)cc3)CC2)CN1c1ccc(C#N)c(Cl)c1 (some centres unmarked) [Cpd. No. 540],–,61%,7990 ng·h/mL,2 mL/min/kg,7.3 h,0.96 L/kg,1130 ng/mL,3.3 h,14500 ng·h/mL,7.8 h
"C[C@H]1CC2(CCN(c3ccc(C(=O)N4CCN(C5CN(c6ccc7c(c6)CN(C6CCC(=O)NC6=O)C7=O)C5)CC4)cc3)CC2)CN1c1ccc(C#N)c(Cl)c1 (stereo partly drawn) [Cpd. No. 346, 2-chloro-4-((3S)-8-(4-(4-(1-(2-(2,6-dioxopiperidin-3-yl)-1-oxoisoindolin-5-yl)azetidin-3-yl)piperazine-1-carbonyl)phenyl)-3-methyl-2,8-diazaspiro[4.5]decan-2-yl)benzonitrile]",–,32%,3030 ng·h/mL,5 mL/min/kg,8.8 h,2.7 L/kg,260 ng/mL,3.3 h,2950 ng·h/mL,7.2 h
"C[C@H]1CC2(CCN(c3ccc(C(=O)N4CCC(CN5CCN(c6ccc7c(c6)C(=O)N(C6CCC(=O)NC6=O)C7=O)CC5)CC4)cc3)CC2)CN1c1ccc(C#N)c(Cl)c1 (stereo partly drawn) [Cpd. No. 442, 2-chloro-4-((3S)-8-(4-(4-((4-(2-(2,6-dioxopiperidin-3-yl)-1,3-dioxoisoindolin-5-yl)piperazin-1-yl)methyl)piperidine-1-carbonyl)phenyl)-3-methyl-2,8-diazaspiro[4.5]decan-2-yl)benzonitrile]",–,42%,5240 ng·h/mL,2.83 mL/min/kg,9.2 h,1.7 L/kg,847 ng/mL,2.67 h,6570 ng·h/mL,5.37 h
